In one test the test system is Dnmt3a^−/− HSCs. The test is described as follows: NF-κB activation in vitro (NF-κB^GFP reporter, immunoblot). In kind it is cell-based, mouse. Particulars: NF-κB^GFP HSCs compared to WT. From the text: (§1) Because intestinal epithelial injury and dysbiosis mediate the expansion of Dnmt3a-mutant pre-leukemic cells was observed, Applicant evaluated whether this occurs because of ADP-heptose-mediated ALPK1 signaling. Indeed, Dnmt3a^−/− HSCs were exquisitely sensitive to ADP-heptose stimulation in vitro. […] Activation of NF-κB in Dnmt3a^−/− HSPCs occurred following treatment with ADP-heptose (FIG. 3L). […] Constitutive combined activation of NF-κB and MAPK, such as during chronic inflammation with IL-1β, promotes differentiation of HSCs at the expense of self-renewal, leading to depletion of the HSC population.
(§2) Dnmt3a^f/f and MxCre^+ (obtained from H. Lee Grimes Laboratory, CCHMC)^33, Alpk1^−/− (11 bp deletion in exon 3, C57BL/6N-Alpk1^em1Fsha/J, Cat no. 032561, Jackson Laboratory), Tifa^−/− (gift from Jun-Ichiro Inoue, University of Tokyo, Japan), and UBC-GFP (C57BL/6-Tg(UBC-GFP)30Scha/J, Cat no. 004353, Jackson Laboratory) mice were maintained on CD45.2+C57BL/6 background. NF-kB^GFP reporter mice were generously provided by C. Jobin. Throughout the study, CD45.1+B6.SJL-Ptprc^a (BoyJ) mice were used as recipients for BM transplantation experiments. […] Mice were bred, housed and monitored daily by laboratory staff and veterinary personnel for health and activity. […]
(§3) Protein concentration was evaluated by bicinchoninic acid (BCA) assay (Pierce, Cat #23225). […]

A further test concerns WT HSPCs. The description is as above. In kind it is cell-based, mouse.
Text: as §1, §2, §3

The values below come from patent publication US20250314644A1, “METHODS COMPRISING DETECTION OF ADP-HEPTOSE” (CHILDREN'S HOSPITAL MEDICAL CENTER, priority 2023, published 2025).

Bounds are passed on as bounds.

Regarding `Nc1ncnc2c1ncn2[C@@H]1O[C@H](COP(=O)(O)OP(=O)(O)O[C@@H]2O[C@H]([C@H](O)CO)[C@@H](O)[C@H](O)[C@@H]2O)[C@@H](O)[C@H]1O` [ADP-heptose, ADP-D-glycero-β-D-manno-heptose], the “NF-κB activation (NF-κB^GFP reporter)” value in the test with Dnmt3a^−/− HSCs is “robust and sustained NF-κB activation”. Further, the “concentration of ADP-heptose required to induce NF-κB activation” value with WT HSPCs was greater than 1 µM.
